According to article PMC11161644, “An effective and rapidly degradable disinfectant from disinfection byproducts” (Nature Communications, 2024):
“And” between values parts separate entries of the source, which are not always exact repeats. Identical values can stand only once.

Assays:
[1] = Degradation in seawater in darkness (pH 6.2, 7.2, 8.2); conditions: for half-life at 10 mg L−1: buffer; for Ln (C/C0): 0 h
Procedure: To study the DBP degradation in seawater in darkness, a DBP was added at 10 mg L^−1 to 50 mL pretreated seawater (pH 8.2) in the quartz flasks. The flasks were wrapped with aluminum foil to simulate the dark condition. The samples were kept at 20 °C in darkness for 0‒120 h, during which the sample was adjusted to pH 6.2 and 7.2 or maintained at pH 8.2 by adding 4 mM phosphate buffer (pH 6.2, 7.2, and 8.2, respectively).
(§1) For the DBP samples with and without sunlight, aliquots were taken at a specific reaction time. The sample aliquots were analyzed using Agilent high-performance liquid chromatography (HPLC) equipped with a Poroshell 120 EC-C18 column (4.6 × 150 mm, 4 µm particle size, Agilent) and a UV detector. The mobile phase, consisting of water (pre-adjusted to pH 2 with phosphoric acid) and acetonitrile at 50/50 (v/v), was applied at a flow rate of 1.0 mL min^−1. PCMX, 2,4-dihalophenols and 5-halosalicylic acids were detected at the wavelength of 230 nm. 2,5-Dihalohydroquinones and 2,6-DCQ were detected at the wavelength of 280 nm. All the degradation experiments were conducted in duplicate.

[2] = Degradation in seawater with simulated solar irradiation; conditions: for half-life at 10 mg L−1: buffer; for Ln (C/C0): 0 h
Procedure: The solar photolysis experiments were conducted in a chamber equipped with eight simulated sunlight full-spectrum lamps (BlueMax 5900, Full Spectrum Solutions). The temperature in the chamber was maintained at 20 °C. The total intensity of simulated sunlight was determined using a digital photometer (DT-1010B, Shenzhen Golden Octopus, China). Quartz flasks were positioned in the chamber where the total intensity of simulated sunlight was 4.79 ± 0.04 mW cm^−2 for each quartz flask. […] A DBP was added at 10 mg L^−1 to 50 mL pretreated seawater (pH 8.2) in the quartz flasks and exposed to the simulated solar irradiation for 0‒96 h. Every 8 h, the quartz flasks were rotated in and out of the chamber, and the sample volume was determined and adjusted with ultrapure water to account for any water evaporation. During the solar irradiation experiments, the sample was adjusted to pH 6.2 and 7.2 or maintained at pH 8.2 by adding 4 mM phosphate buffer (pH 6.2, 7.2, and 8.2, respectively).
as §1

S. aureus (ATCC 25923) = test: Inactivation of S. aureus (contact time 5 min); type: cell-based, Staphylococcus aureus; conditions: pH 7.2, contact time 5 min
Procedure: The chemicals and reagents used are detailed in Supplementary Note 1. The bacteria E. coli (ATCC 25922) and S. aureus (ATCC 25923) were cultured aerobically in Luria-Bertani broth (Sigma-Aldrich) and Tryptone Soya broth (Oxoid), respectively, at 37 °C for 16 h. The fungus C. albicans (ATCC 14053) was aerobically cultured in Sabouraud Dextrose broth (Difco) at 37 °C for 24 h. The microorganism cells were harvested by centrifugation at 1200×g (10 min, 4 °C) and resuspended in phosphate-buffered saline (PBS, 10 mM, pH 7.2). The disinfection experiments were performed in PBS solutions (10 mM, pH 7.2) with an initial concentration of E. coli, S. aureus, or C. albicans of 10^6‒10^7 cells per milliliter. A contact time of 5 min was used in accordance with the recommended time range of 0.25–10 min by USEPA for surface disinfection. Preliminary tests were conducted to determine the appropriate range of DBP doses. The appropriate dose range was established when the lowest and highest doses could achieve <1-log and >3-log of microbial inactivation, respectively. Based on the preliminary results, a series of doses of DBPs were added to the cell suspensions at room temperature (22 ± 1 °C). After the contact time of 5 min, the microorganism cells were enumerated following a membrane filter method. Briefly, serial 10-fold dilutions were conducted for the disinfected samples and the control sample without disinfection. Each diluted suspension was subjected to filtration through 0.45-μm membrane, which was then placed on a petri dish. The Petri dishes containing E. coli, S. aureus, and C. albicans were incubated in m-FC medium (Becton Dickinson & Co) at 45 °C for 24 h, in Tryptone Soya broth at 37 °C for 24 h and in Sabouraud Dextrose broth at 37 °C for 24 h, respectively. After incubation, the colony-forming units within a statistically reasonable range (20–80) were counted.

P. dumerilii embryos = test: Developmental toxicity assay with P. dumerilii embryos, dilution factor of in-use concentration (EC50,DF), also after degradation in darkness; type: in vivo, Platynereis dumerilii; conditions: for Normal development: 2,6-DCQ
Text: The DBP doses for 3-log E. coli reduction (pH 7.2) were set as the in-use concentrations, which were serially diluted and added to the P. dumerilii embryos at 12-h postfertilization. A dilution factor was defined as the ratio of the in-use concentration to the exposure concentration. Each exposure set contained a control sample (i.e., the embryos at 12-h postfertilization developed in seawater without the addition of DBPs). By 24-h postfertilization, normally developed embryos should have reached the first larval stage. An inverted stereomicroscope (×40 magnification) was used to observe the larvae. The normal development percentage was calculated as the ratio of normally developed embryos to total embryos. By plotting the curve of the normal development percentage versus the dilution factor, the EC50,DF value (i.e., the dilution factor corresponding to 50% of the normal development percentage of the control sample) was obtained using SigmaPlot 12. The developmental toxicity test was conducted in duplicate.

**Q.** With `O=C1C=C(Cl)C(=O)C(Cl)=C1` [2,6-DCQ, 2,6-dichlorobenzoquinone] as the molecule, how does the half-life at 10 mg L−1 ([1]; pH 6.2) read?
**A.** 76.2 h

**Q.** And the half-life at 10 mg L−1 ([1]; pH 7.2)?
**A.** 13.4 h

**Q.** And the half-life at 10 mg L−1 ([1]; pH 8.2)?
**A.** 1.74 h

**Q.** What about the “Degradation rate constant k” value ([1]; pH 6.2, without solar irradiation) of the same molecule?
**A.** 0.009 h⁻¹

**Q.** What about the “Ln (C/C0)” value ([1]; pH 6.2 in darkness) of the same molecule?
**A.** 0

**Q.** What about the “Ln (C/C0)” value ([1]; pH 7.2 in darkness) of the same molecule?
**A.** 0

**Q.** What about the “Ln (C/C0)” value ([1]; seawater pH 8.2, darkness) of the same molecule?
**A.** 0

**Q.** What about the “Degradation rate constant k” value ([1]; seawater pH 8.2, without solar irradiation) of the same molecule?
**A.** 0.397 h‒1

**Q.** What about the half-life at 10 mg L−1 ([2]; pH 6.2) of the same molecule?
**A.** 4.13 h

**Q.** And the half-life at 10 mg L−1 ([2]; pH 7.2)?
**A.** 3.2 h

**Q.** What about the half-life at 10 mg L−1 ([2]; pH 8.2) of the same molecule?
**A.** 1.33 h

**Q.** And the “Degradation rate constant k” value ([2]; pH 6.2, with solar irradiation)?
**A.** 0.168 h⁻¹

**Q.** And the “Ln (C/C0)” value ([2]; pH 6.2 with solar irradiation)?
**A.** 0

**Q.** And the “Degradation rate constant k” value ([2]; pH 7.2, with solar irradiation)?
**A.** 0.217 h⁻¹

**Q.** And the “Ln (C/C0)” value ([2]; pH 7.2 with solar irradiation)?
**A.** 0

**Q.** What about the “Ln (C/C0)” value ([2]; seawater pH 8.2, solar irradiation) of the same molecule?
**A.** 0

**Q.** What about the “Degradation rate constant k” value ([2]; seawater pH 8.2, with solar irradiation) of the same molecule?
**A.** 0.520 h‒1

**Q.** And the “Dose for achieving 3-log inactivation of S. aureus” value (S. aureus (ATCC 25923))?
**A.** 28.6 mg L−1

**Q.** What about the “S. aureus inactivation rate constant k” value (S. aureus (ATCC 25923)) of the same molecule?
**A.** 20200 µL/min/mg

**Q.** What about the Normal development (P. dumerilii embryos; degradation 0 h, dilution factor 12.8) of the same molecule?
**A.** 7.407% and 6.667%

**Q.** And the Normal development (P. dumerilii embryos; degradation 0 h, dilution factor 17.0667)?
**A.** 16.2963% and 20.7921%

**Q.** What about the Normal development (P. dumerilii embryos; degradation 0 h, dilution factor 21.3333) of the same molecule?
**A.** 42.1875% and 37.2727%

**Q.** And the Normal development (P. dumerilii embryos; degradation 0 h, dilution factor 25.6)?
**A.** 62.0155% and 62.3077%

**Q.** What about the Normal development (P. dumerilii embryos; degradation 0 h, dilution factor 32) of the same molecule?
**A.** 80% and 80.822%

**Q.** What about the Normal development (P. dumerilii embryos; degradation 0 h, dilution factor 42.6667) of the same molecule?
**A.** 76.7442% and 82.4428%

**Q.** What about the Normal development (P. dumerilii embryos; degradation 1 h, dilution factor 6.4) of the same molecule?
**A.** 1.886% and 1.145%

**Q.** What about the Normal development (P. dumerilii embryos; degradation 1 h, dilution factor 8.5333) of the same molecule?
**A.** 4.186% and 11.8136%

**Q.** What about the Normal development (P. dumerilii embryos; degradation 1 h, dilution factor 10.6667) of the same molecule?
**A.** 24.138% and 24.6154%

**Q.** What about the Normal development (P. dumerilii embryos; degradation 1 h, dilution factor 12.8) of the same molecule?
**A.** 51.5152% and 47.1698%

**Q.** What about the Normal development (P. dumerilii embryos; degradation 1 h, dilution factor 16) of the same molecule?
**A.** 70.5883% and 65.2173%

**Q.** And the Normal development (P. dumerilii embryos; degradation 2 h, dilution factor 6.4)?
**A.** 11.0368% and 10.1754%

**Q.** And the Normal development (P. dumerilii embryos; degradation 2 h, dilution factor 8.5333)?
**A.** 46.773% and 42.9328%

**Q.** And the Normal development (P. dumerilii embryos; degradation 2 h, dilution factor 10.6667)?
**A.** 58.0645% and 64.2277%

**Q.** And the Normal development (P. dumerilii embryos; degradation 2 h, dilution factor 12.8)?
**A.** 77.7778% and 71.0938%

**Q.** And the Normal development (P. dumerilii embryos; degradation 2 h, dilution factor 16)?
**A.** 82.2282% and 85.1792%

**Q.** What about the Normal development (P. dumerilii embryos; degradation 4 h, dilution factor 1.28) of the same molecule?
**A.** 3.429% and 2.688%

**Q.** And the Normal development (P. dumerilii embryos; degradation 4 h, dilution factor 1.6)?
**A.** 15.8884% and 20.3842%

**Q.** What about the Normal development (P. dumerilii embryos; degradation 4 h, dilution factor 1.8286) of the same molecule?
**A.** 27.1674% and 32.6748%

**Q.** What about the Normal development (P. dumerilii embryos; degradation 4 h, dilution factor 2.1333) of the same molecule?
**A.** 54.2087% and 56.2379%

**Q.** And the Normal development (P. dumerilii embryos; degradation 4 h, dilution factor 2.8444)?
**A.** 78.1453% and 71.7507%

**Q.** What about the Normal development (P. dumerilii embryos; degradation 4 h, dilution factor 4.2667) of the same molecule?
**A.** 76.1253% and 77.0995%

**Q.** What about the Normal development (P. dumerilii embryos; degradation 6 h, dilution factor 0.8) of the same molecule?
**A.** 0%

**Q.** What about the Normal development (P. dumerilii embryos; degradation 6 h, dilution factor 0.9143) of the same molecule?
**A.** 0%

**Q.** What about the Normal development (P. dumerilii embryos; degradation 6 h, dilution factor 1.0667) of the same molecule?
**A.** 6.421% and 4.805%

**Q.** And the Normal development (P. dumerilii embryos; degradation 6 h, dilution factor 1.28)?
**A.** 19.2308% and 16.923%

**Q.** And the Normal development (P. dumerilii embryos; degradation 6 h, dilution factor 1.6)?
**A.** 44.5256% and 45.8716%

**Q.** And the Normal development (P. dumerilii embryos; degradation 6 h, dilution factor 1.8286)?
**A.** 55.6999% and 52.4319%

**Q.** And the Normal development (P. dumerilii embryos; degradation 10 h, dilution factor 0.3657)?
**A.** 0%

**Q.** And the Normal development (P. dumerilii embryos; degradation 10 h, dilution factor 0.4267)?
**A.** 10.4446% and 5.949%

**Q.** And the Normal development (P. dumerilii embryos; degradation 10 h, dilution factor 0.512)?
**A.** 22.4806% and 12.844%

**Q.** And the Normal development (P. dumerilii embryos; degradation 10 h, dilution factor 0.64)?
**A.** 50% and 42.3728%

**Q.** What about the Normal development (P. dumerilii embryos; degradation 10 h, dilution factor 0.8533) of the same molecule?
**A.** 73.1885% and 72.3577%

**Q.** What about the Normal development (P. dumerilii embryos; degradation 10 h, dilution factor 1.28) of the same molecule?
**A.** 86.5288% and 89.8492%

**Q.** What about the Normal development (P. dumerilii embryos; degradation 24 h, dilution factor 0.2844) of the same molecule?
**A.** 11.3922% and 10.426%

**Q.** What about the Normal development (P. dumerilii embryos; degradation 24 h, dilution factor 0.32) of the same molecule?
**A.** 28.4579%

**Q.** And the Normal development (P. dumerilii embryos; degradation 24 h, dilution factor 0.3657)?
**A.** 46.3636% and 52.9132%

**Q.** And the Normal development (P. dumerilii embryos; degradation 24 h, dilution factor 0.4267)?
**A.** 72.0505% and 66.5657%

**Q.** And the Normal development (P. dumerilii embryos; degradation 24 h, dilution factor 0.512)?
**A.** 75.7656% and 68.6094%

**Q.** And the Normal development (P. dumerilii embryos; degradation 24 h, dilution factor 0.64)?
**A.** 71.3237% and 68.0033%

**Q.** And the Normal development (P. dumerilii embryos; degradation 48 h, dilution factor 0.2695)?
**A.** 37.7015% and 37.2985%

**Q.** What about the Normal development (P. dumerilii embryos; degradation 48 h, dilution factor 0.2844) of the same molecule?
**A.** 52.938% and 47.9316%

**Q.** What about the Normal development (P. dumerilii embryos; degradation 48 h, dilution factor 0.32) of the same molecule?
**A.** 57.0093% and 59.2105%

**Q.** What about the Normal development (P. dumerilii embryos; degradation 48 h, dilution factor 0.3657) of the same molecule?
**A.** 74.6032% and 77.2414%

**Q.** And the Normal development (P. dumerilii embryos; degradation 48 h, dilution factor 0.4267)?
**A.** 81.3111% and 83.4889%

**Q.** And the “Toxicity relative to PCMX (times less toxic)” value (P. dumerilii embryos; after 48-h degradation in seawater in darkness)?
**A.** 31 times

**Q.** And the “EC50,DF as share of EC50,DF of PCMX” value (P. dumerilii embryos; after 48 h degradation in darkness)?
**A.** 3.0%
